{
  "source": "ChEMBL document CHEMBL6096723",
  "about": "“Discovery of novel capsaicin analogs as TRPV1 inhibitors for the treatment of idiopathic pulmonary fibrosis” (Eur J Med Chem, 2025)",
  "key": {"NIH3T3 [1]": {"tested_on": "NIH3T3", "test": "Antifibrotic activity in mouse NIH3T3 cells assessed as decrease in TGFbeta-induced Collagen type 1 expression measured after 48 hrs incubation by Western blotting analysis", "assay_type": "functional, cell-based", "details": "dose 1-10 µM"}, "[2]": {"molecular_target": "Transient receptor potential cation channel subfamily V member 1 (Homo sapiens) (UniProt Q8NER1)", "sequence (Q8NER1 whole entry)": "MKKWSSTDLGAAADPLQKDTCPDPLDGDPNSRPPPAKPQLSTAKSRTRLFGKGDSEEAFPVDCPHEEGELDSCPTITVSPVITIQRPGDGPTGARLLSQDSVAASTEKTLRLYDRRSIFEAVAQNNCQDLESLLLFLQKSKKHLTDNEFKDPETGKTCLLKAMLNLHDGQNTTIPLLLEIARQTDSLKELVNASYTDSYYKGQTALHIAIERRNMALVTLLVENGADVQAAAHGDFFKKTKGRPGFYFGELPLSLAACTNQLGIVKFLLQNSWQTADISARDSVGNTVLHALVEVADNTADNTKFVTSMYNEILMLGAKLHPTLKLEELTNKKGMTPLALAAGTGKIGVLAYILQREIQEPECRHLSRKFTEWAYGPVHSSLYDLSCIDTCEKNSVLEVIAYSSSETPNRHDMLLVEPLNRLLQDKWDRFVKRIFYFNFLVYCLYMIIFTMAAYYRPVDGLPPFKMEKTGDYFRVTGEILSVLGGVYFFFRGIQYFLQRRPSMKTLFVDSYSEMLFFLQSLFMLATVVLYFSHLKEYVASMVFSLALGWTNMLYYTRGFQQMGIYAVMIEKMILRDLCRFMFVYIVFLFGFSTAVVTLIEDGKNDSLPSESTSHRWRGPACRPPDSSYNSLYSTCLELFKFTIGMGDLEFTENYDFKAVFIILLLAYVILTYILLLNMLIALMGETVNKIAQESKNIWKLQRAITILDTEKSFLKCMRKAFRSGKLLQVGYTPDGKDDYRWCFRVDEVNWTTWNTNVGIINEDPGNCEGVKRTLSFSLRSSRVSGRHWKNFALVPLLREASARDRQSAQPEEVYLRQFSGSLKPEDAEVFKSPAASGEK", "test": "Inhibition of TRPV1 (unknown origin) overexpressed in si-TRPV1-2 transfected HEK-293T cells assessed as decrease in TGFbeta-induced alpha-SMA expression at 10 uM measured after 48 hrs incubation by Western blotting analysis", "assay_type": "cell-based"}, "NIH3T3 [3]": {"tested_on": "NIH3T3", "test": "Inhibition of TGFbeta-induced p38 phosphorylation in mouse NIH3T3 cells at 1 to 10 uM by Western blot analysis", "assay_type": "functional, cell-based", "details": "dose 1-10 µM"}, "[4]": {"test": "Acute toxicity in Kunming female mouse assessed as Alanine aminotransferase (ALT) level at 180 mg/kg, ip measured after 14 days (reference value: 33.7 U/L)", "assay_type": "organism-based", "details": "in vivo, 336 h, time 14 day"}, "[5]": {"test": "Acute toxicity in Kunming female mouse assessed as Total bilirubin (T-Bil) level at 180 mg/kg, ip measured after 14 days (reference value: 10.79 micromol/L)", "assay_type": "organism-based", "details": "in vivo, 336 h, time 14 day"}, "[6]": {"test": "Acute toxicity in Kunming female mouse assessed as Direct bilirubin (D-Bil) level at 180 mg/kg, ip measured after 14 days (reference value: 3.37 micromol/L)", "assay_type": "organism-based", "details": "in vivo, 336 h, time 14 day"}, "[7]": {"test": "Acute toxicity in Kunming female mouse assessed as Uric acid (UA) level at 180 mg/kg, ip measured after 14 days (reference value: 252.2 micromol/L)", "assay_type": "organism-based", "details": "in vivo, 336 h, time 14 day"}, "[8]": {"test": "Acute toxicity in Kunming female mouse assessed as Lactate dehydrogenase (LDH) level at 180 mg/kg, ip measured after 14 days (reference value: 1952.7 U/L)", "assay_type": "organism-based", "details": "in vivo, 336 h, time 14 day"}, "[9]": {"test": "Acute toxicity in Kunming female mouse assessed as Creatine kinase (CK) level at 180 mg/kg, ip measured after 14 days (reference value: 779.7 U/L)", "assay_type": "organism-based", "details": "in vivo, 336 h, time 14 day"}, "[10]": {"test": "Acute toxicity in Kunming male mouse assessed as Aspartate aminotransferase (AST) level at 180 mg/kg, ip measured after 14 days (reference value: 116.7 U/L)", "assay_type": "organism-based", "details": "in vivo, 336 h, time 14 day"}, "[11]": {"test": "Acute toxicity in Kunming male mouse assessed as Urea level at 180 mg/kg, ip measured after 14 days (reference value: 6.54 mmol/L)", "assay_type": "organism-based", "details": "in vivo, 336 h, time 14 day"}, "[12]": {"test": "Acute toxicity in Kunming male mouse assessed as Creatinine (CREA) level at 180 mg/kg, ip measured after 14 days (reference value: 12.4 micromol/L)", "assay_type": "organism-based", "details": "in vivo, 336 h, time 14 day"}, "[13]": {"test": "Acute toxicity in Kunming male mouse assessed as Creatine kinase (CK) level at 180 mg/kg, ip measured after 14 days (reference value: 710.6 U/L)", "assay_type": "organism-based", "details": "in vivo, 336 h, time 14 day"}, "[14]": {"test": "Acute toxicity in Kunming mouse assessed as organ lesions in liver at 180 mg/kg, ip measured after 14 days by H and E staining based assay", "assay_type": "organism-based", "details": "in vivo, 336 h, time 14 day"}, "[15]": {"test": "Acute toxicity in Kunming mouse assessed as organ lesions in kidney at 180 mg/kg, ip measured after 14 days by H and E staining based assay", "assay_type": "organism-based", "details": "in vivo, 336 h, time 14 day"}, "[16]": {"test": "MRT(0 to infinity) in Sprague-Dawley rat at 50 mg/kg, po measured upto 4 hrs by UPLC-MS/MS analysis", "assay_type": "ADME, organism-based", "details": "in vivo"}, "[17]": {"test": "Half life in Sprague-Dawley rat at 50 mg/kg, po measured upto 4 hrs by UPLC-MS/MS analysis", "assay_type": "ADME, organism-based", "details": "in vivo"}, "[18]": {"test": "Tmax in Sprague-Dawley rat at 50 mg/kg, po measured upto 4 hrs by UPLC-MS/MS analysis", "assay_type": "ADME, organism-based", "details": "in vivo"}, "[19]": {"test": "Clearance in Sprague-Dawley rat at 50 mg/kg, po measured upto 4 hrs by UPLC-MS/MS analysis", "assay_type": "ADME, organism-based", "details": "in vivo"}, "[20]": {"test": "MRT(0 to infinity) in Sprague-Dawley rat at 50 mg/kg, ip measured upto 4 hrs by UPLC-MS/MS analysis", "assay_type": "ADME, organism-based", "details": "in vivo"}, "[21]": {"test": "VRT(0 to infinity) in Sprague-Dawley rat at 50 mg/kg, ip measured upto 4 hrs by UPLC-MS/MS analysis", "assay_type": "ADME, organism-based", "details": "in vivo"}, "[22]": {"test": "Tmax in Sprague-Dawley rat at 50 mg/kg, ip measured upto 4 hrs by UPLC-MS/MS analysis", "assay_type": "ADME, organism-based", "details": "in vivo"}, "[23]": {"test": "Bioavailability in Sprague-Dawley rat at 50 mg/kg, ip measured upto 4 hrs by UPLC-MS/MS analysis", "assay_type": "ADME, organism-based", "details": "in vivo"}, "[24]": {"test": "MRT(0 to infinity) in Sprague-Dawley rat at 50 mg/kg, iv measured upto 4 hrs by UPLC-MS/MS analysis", "assay_type": "ADME, organism-based", "details": "in vivo"}, "[25]": {"test": "VRT(0 to infinity) in Sprague-Dawley rat at 50 mg/kg, iv measured upto 4 hrs by UPLC-MS/MS analysis", "assay_type": "ADME, organism-based", "details": "in vivo"}, "[26]": {"test": "Half life in Sprague-Dawley rat at 50 mg/kg, iv measured upto 4 hrs by UPLC-MS/MS analysis", "assay_type": "ADME, organism-based", "details": "in vivo"}, "Rattus norvegicus": {"tested_on": "Rattus norvegicus", "test": "Zeta in Sprague-Dawley rat at 50 mg/kg, iv measured upto 4 hrs by UPLC-MS/MS analysis", "assay_type": "ADME, organism-based", "details": "in vivo"}, "Mus musculus [27]": {"tested_on": "Mus musculus", "test": "Anti-pulmonary fibrotic activity against bleomycin induced pulmonary fibrosis mouse model assessed as reduction in pulmonary fibrosis lesions at 10 to 20 mg/kg, ip administered every alternative day for 8 to 21 days after modeling", "assay_type": "functional, organism-based", "details": "dose 10-20 mg/kg, time 8-21 day"}, "Mus musculus [28]": {"tested_on": "Mus musculus", "test": "Anti-pulmonary fibrotic activity against bleomycin-induced pulmonary fibrosis mouse model assessed as reduction in BLM-induced […] expression in lung tissue at 10 to 20 mg/kg, ip administered every alternative day for 8 to 21 days after modeling", "assay_type": "functional, organism-based", "details": "dose 10-20 mg/kg, time 8-21 day"}, "Mus musculus [29]": {"tested_on": "Mus musculus", "test": "Anti-fibrotic activity against bleomycin-induced pulmonary fibrosis mouse model assessed as increase in survival of mouse at 10 to 20 mg/kg, ip administered every alternative day for 8 to 21 days after modeling", "assay_type": "functional, organism-based", "details": "dose 10-20 mg/kg, time 8-21 day"}, "Mus musculus [30]": {"tested_on": "Mus musculus", "test": "Anti-fibrotic activity against bleomycin-induced pulmonary fibrosis mouse model assessed as increase in forced vital capacity (FVC) at 10 to 20 mg/kg, ip administered every alternative day for 8 to 21 days after modeling", "assay_type": "functional, organism-based", "details": "dose 10-20 mg/kg, time 8-21 day"}, "Mus musculus [31]": {"tested_on": "Mus musculus", "test": "Anti-pulmonary fibrotic activity against bleomycin-induced pulmonary fibrosis mouse model assessed as inhibition of Smad3 phosphorylation in lung tissue at 10 to 20 mg/kg, ip administered every alternative day for 8 to 21 days after modeling by immunohistochemical staining based assay", "assay_type": "functional, organism-based", "details": "dose 10-20 mg/kg, time 8-21 day"}, "[32]": {"test": "AUC(0 to infinity) in Sprague-Dawley rat at 50 mg/kg, po measured upto 4 hrs by UPLC-MS/MS analysis", "assay_type": "ADME, organism-based", "details": "in vivo"}, "[33]": {"test": "AUMC(0 to t) in Sprague-Dawley rat at 50 mg/kg, po measured upto 4 hrs by UPLC-MS/MS analysis", "assay_type": "ADME, organism-based", "details": "in vivo"}, "[34]": {"test": "AUC(0 to infinity) in Sprague-Dawley rat at 50 mg/kg, ip measured upto 4 hrs by UPLC-MS/MS analysis", "assay_type": "ADME, organism-based", "details": "in vivo"}, "[35]": {"test": "AUC(0 to t) in Sprague-Dawley rat at 50 mg/kg, iv measured upto 4 hrs by UPLC-MS/MS analysis", "assay_type": "ADME, organism-based", "details": "in vivo"}, "[36]": {"test": "AUC(0 to infinity) in Sprague-Dawley rat at 50 mg/kg, iv measured upto 4 hrs by UPLC-MS/MS analysis", "assay_type": "ADME, organism-based", "details": "in vivo"}, "[37]": {"test": "AUMC(0 to infinity) in Sprague-Dawley rat at 50 mg/kg, iv measured upto 4 hrs by UPLC-MS/MS analysis", "assay_type": "ADME, organism-based", "details": "in vivo"}},
  "note": "Active and inactive are the calls of the source. The rule behind the calls is not given here.",
  "data": [
    {"smiles": "O=C(/C=C/c1ccc(O)c(O)c1)CCCCc1ccccc1", "values": [
      {"measurement": "Activity", "setting": "NIH3T3 [1]", "value": "Dose-dependent-effect; Compound More Potent Than Nintedanib"},
      {"measurement": "inhibition", "setting": "[2]", "value": "inactive"},
      {"measurement": "inhibition", "setting": "NIH3T3 [3]", "value": "Active"},
      {"measurement": "Activity", "setting": "[4]", "value": 40.1, "unit": "U/L"},
      {"measurement": "Activity", "setting": "[5]", "value": 18.82, "unit": "µmol/L"},
      {"measurement": "Activity", "setting": "[6]", "value": 1.02, "unit": "µmol/L"},
      {"measurement": "Activity", "setting": "[7]", "value": 345.6, "unit": "µmol/L"},
      {"measurement": "Activity", "setting": "[8]", "value": 2798.2, "unit": "U/L"},
      {"measurement": "Activity", "setting": "[9]", "value": 1115.7, "unit": "U/L"},
      {"measurement": "Activity", "setting": "[10]", "value": 125.2, "unit": "U/L"},
      {"measurement": "Activity", "setting": "[11]", "value": 9.56, "unit": "mmol/L"},
      {"measurement": "Activity", "setting": "[12]", "value": 15.3, "unit": "µmol/L"},
      {"measurement": "Activity", "setting": "[13]", "value": 710.6, "unit": "U/L"},
      {"measurement": "Activity", "setting": "[14]", "value": "Non-toxic"},
      {"measurement": "Activity", "setting": "[15]", "value": "Non-toxic"},
      {"measurement": "MRT inf", "setting": "[16]", "value": 81, "unit": "min"},
      {"measurement": "half-life", "setting": "[17]", "value": 51, "unit": "min"},
      {"measurement": "Tmax", "setting": "[18]", "value": 10.2, "unit": "min"},
      {"measurement": "CL", "setting": "[19]", "value": 197.26, "unit": "L/h/kg"},
      {"measurement": "MRT inf", "setting": "[20]", "value": 34.2, "unit": "min"},
      {"measurement": "VRT", "setting": "[21]", "value": 0.72, "unit": "hr2"},
      {"measurement": "Tmax", "setting": "[22]", "value": 10.2, "unit": "min"},
      {"measurement": "bioavailability", "setting": "[23]", "value": 29.6, "unit": "%"},
      {"measurement": "MRT inf", "setting": "[24]", "value": 47.6, "unit": "min"},
      {"measurement": "VRT", "setting": "[25]", "value": 0.779, "unit": "hr2"},
      {"measurement": "half-life", "setting": "[26]", "value": 39.4, "unit": "min"},
      {"measurement": "Activity", "setting": "Rattus norvegicus", "value": 1.07},
      {"measurement": "Activity", "setting": "Mus musculus [27]", "value": "Active"},
      {"measurement": "Activity", "setting": "Mus musculus [28]", "value": "Active"},
      {"measurement": "Activity", "setting": "Mus musculus [29]", "value": "Active; Comparable To Nintedanib"},
      {"measurement": "Activity", "setting": "Mus musculus [30]", "value": "Active"},
      {"measurement": "Activity", "setting": "Mus musculus [31]", "value": "Active"},
      {"measurement": "AUC", "setting": "[32]", "value": 102.37, "unit": "ng·h/mL"},
      {"measurement": "AUMCt", "setting": "[33]", "value": 121.11, "unit": "ug/L.hr"},
      {"measurement": "AUC", "setting": "[34]", "value": 1095.38, "unit": "ng·h/mL"},
      {"measurement": "AUC(0-t) at 4 h", "setting": "[35]", "value": 2640, "unit": "ng·h/mL"},
      {"measurement": "AUC", "setting": "[36]", "value": 2670.601, "unit": "ng·h/mL"},
      {"measurement": "AUMC", "setting": "[37]", "value": 2122.825, "unit": "ug/L.hr"}
    ]}
  ]
}
